Source: patent US6416791B1, “Alimentary integrator” (priority 1999, dated 2002)
Each block holds one compound with its values, some of them ahead of it.

Legend:
[1] = water solubility of the salt; type: physicochemical
[2] = toxicity at the stated dosages; settings: given the stated dosages; long-term use
[3] = stability of the salt (oxidizability); type: physicochemical; settings: due to its easy oxidizability
[4] = system: patients (symptoms of the disease); test: comparison testing of symptom changes in patients treated with potassium citrate or potassium tartarate; type: in vivo, human; settings: FIGS. 6 and 7; 4 patients per compound; base condition, 10th and 20th day
Source text: The substitution of one or more components of the compound causes an inefficacy of the relevant different compound.
The graph of FIG. 6 is relevant to the changes in symptoms among 4 patients treated using potassium citrate, while the graph of FIG. 7 is relevant to the changes in symptoms among 4 patients treated using potassium tartarate. Similarly to the graph of FIG. 5, on abscissa each graph presents the different symptoms; from left to right-thoracic pain, abdominal pain, osteomuscular pain-dyspnea, cough, nausea, emesis, ascites, temperature, asthenia. The columns are composed by three secondary columns which refer to the different time of recording of the data, with 10 days interval; from left to right base condition (at the beginning of the treatment), at 10th day and at 20th day. Also in these cases the rate utilized as ordinate in the graph is relevant to the intensity (amount) of the symptoms.

[5] = system: patients suffering from different types of neoplasia in advanced phase; test: testing of potassium ribose ascorbate, given three times a day, in 30 terminally-ill neoplasia patients for more than ten years; type: in vivo, human
Procedure: In FIGS. 2-5 and 8-11 are shown the results of a testing carried out for more than ten years. The testing was carried out on a sample of 30 patients suffering from different types of neoplasia in advanced phase (terminally-ill patients).
The patients were given potassium ribose ascorbate three times a day.
The integrator of the present invention not only allows a good survival percentage but also improves the symptoms of the diseases. In FIG. 5 is a graph showing the changes in ten symptoms among the patients above mentioned. On abscissa the graph presents the different symptoms; from left to right thoracic pain, abdominal pain, osteomuscular pain, dyspnea, cough, nausea, emesis, ascites, temperature, asthenia. Every column is composed by five secondary columns which refer to the different time of recording of the data, with 15 days interval, from left to right: base condition (at the beginning of the treatment), at 15th day, at 30th day, at 45th and at 60th day The rate utilized as ordinate in the graph is relevant to the intensity (amount) of the symptoms. This rate is a normalized value among the different rates utilized for measuring the ten symptoms (i.e. degrees for the temperature, an objective value for pain, cough, etc). A higher rate means a higher means intensity of the symptom.
In particular, FIG.8 is relevant to the mean changes in the hemoglobin rate, in the graph, the abscissa is divided in steps corresponding to 15 days intervals, while the ordinate is expressed in g/dl. FIG. 9 is relevant to the mean changes in the white cells number; in the graph, the abscissa is divided in steps corresponding to 15 days intervals, while the ordinate is expressed in number of cells. FIG. 10 is relevant to the mean changes in the red cells number; in the graph, the abscissa is divided in steps corresponding to 15 days intervals, while the ordinate is expressed in thousands of cells. FIG. 11 is relevant to the mean changes in the erythrosedimentation rate at first hour; in the graph, the abscissa is divided in steps corresponding to 15 days intervals, while the ordinate is expressed in erythrosedimentation rate.

solubility in water [1]: easily water-soluble
stability [3]: somewhat unstable
Compound: potassium ribosate
toxicity [2]: does not produce any toxicity

Compound: O=C([O-])CC(O)(CC(=O)[O-])C(=O)[O-].[K+].[K+].[K+] [potassium citrate]
change in intensity of ten symptoms [4]: substantially increasing symptoms rate

Compound: potassium ribose ascorbate
survival percentage after five years ([5]; FIG. 2, terminally-ill patients, by location of neoplasia: brain, breast, lung, ovary, prostate, skin): very high
survival percentage after ten years ([5]; FIG. 3, terminally-ill patients, by location of neoplasia: brain, breast, lung, ovary, prostate, skin): very high
change in intensity of ten symptoms (thoracic, abdominal, osteomuscular pain, dyspnea, cough, nausea, emesis, ascites, temperature, asthenia) ([5]; FIG. 5, normalized rate, base condition, 15th, 30th, 45th and 60th day): all symptoms decreased
mean changes in the hemoglobin rate ([5]; FIG. 8, 15 days intervals, ordinate in g/dl): increasing rates
mean changes in the white cells number ([5]; FIG. 9, 15 days intervals, ordinate in number of cells): increasing rates
mean changes in the red cells number ([5]; FIG. 10, 15 days intervals, ordinate in thousands of cells): increasing rates
mean changes in the erythrosedimentation rate at first hour ([5]; FIG. 11, 15 days intervals): decreasing rate
stability [3]: somewhat unstable

Compound: O=C([O-])C(O)C(O)C(=O)[O-].[K+].[K+] (stereo not shown) [potassium tartarate]
change in intensity of ten symptoms [4]: substantially increasing symptoms rate
